Experimental findings from patent US7799819B2, “7-Amido-isoindolyl compounds and their pharmaceutical uses” (Celgene Corporation, priority 2003, dated 2010) are described below.

In turn, `CCOc1cc([C@@H](CS(C)(=O)=O)N2Cc3c(Cl)ccc(NC(=O)N(C)C)c3C2=O)ccc1OC` [Example 29, (1S)-3-{7-Chloro-2-[1-(3-ethoxy-4-methoxy-phenyl)-2-methanesulfonyl-ethyl]-3-oxo-2,3-dihydro-1H-isoindol-4-yl}-1,1-dimethyl-urea] showed a melting point of 205 to 207 °C.
The value for `CCOc1cc([C@@H](CS(C)(=O)=O)N2Cc3c(Cl)ccc(NC(=O)CN4CCN(C)CC4)c3C2=O)ccc1OC` [Example 30, (1S)—N-{7-Chloro-2-[1-(3-ethoxy-4-methoxy-phenyl)-2-methanesulfonyl-ethyl]-3-oxo-2,3-dihydro-1H-isoindol-4-yl}-2-(4-methyl-piperazin-1-yl)-acetamide] was 205 to 207 °C.

By melting point is commonly meant the temperature, or range, at which the solid turns liquid.
